Data taken from patent US9783513B2, “STAT3 inhibitors and their anticancer use” (Ohio State Innovation Foundation, priority 2012, dated 2017).
Entries after “also recorded” stand apart in the source; their conditions may differ.

Columns and labels:
STAT3 SH2 domain = STAT3 SH2 domain (Homo sapiens, UniProt P40763); experiment: Fluorescence polarization (FP) assay; format: binding
Experimental: Screening was performed at physiologically relevant temperature 37° C. Before each experiment, Compound LY-5 was prepared freshly from the stock solution. Compound LY-5 increased its background fluorescence reading at 595 nm at high concentrations, so the control solutions for each concentration were prepared by mixing buffer, LY-5, and fluorescence-labeled peptides together.
Screening was performed at approximately 37° C. STAT3 protein was used at 300 nM. The final concentration of buffer components used for all FP assays was 10 mM HEPES (pH 7.5), 1 mM EDTA, 0.1% Nonidet P-40, 50 mM NaCl, and 20% DMSO. Dithiothreitol was not added. LP-5 was diluted to a series of concentrations (1-200 μM) from a 20 mM stock in DMSO. Proteins were incubated with LP-5 in Eppendorf tubes at room temperature for 60 min prior addition of the 5-carboxyfluorescein labeled peptides. The final concentration of labeled peptide is 10 nM. The mixtures were transferred to a 384 Well Costar Black plate with each concentration repeated in three wells. The mixtures were equilibrated in the incubator at 37° C. for at least 30 min. The FP readings were measured and the experiments were repeated three times. Inhibition curves with standard deviation were fitted and Ki value was determined accordingly.

[1] = system: IL-6 induced STAT3 phosphorylation; experiment: Western blot, IL-6 induced STAT3 phosphorylation; format: cell-based, human
Experimental: (§1) RH30 cells were treated with DMSO, LY-5 (0.25-1 μM) and LY-3 (0.5-2.5 μM) prepared as a 20 mM stock solution in sterile DMSO at 60% to 80% confluence in the presence of 10% FBS for 24 hours. The sarcoma cell line EW8 was treated with DMSO and LY-5 (0.5-2.5 μM) prepared as a 20 mM stock solution in sterile DMSO at 60% to 80% confluence in the presence of 10% FBS for 24 hours. MCF-7 cells and DAOY cells were treated with DMSO, 25-50 ng/ml of IL-6, LY-5 (0.25-1 μM) or LY-3 (0.5-2.5 μM) prepared as a 20 mM stock solution in sterile DMSO, protein expressions of P-STAT3 (Tyr705) and STAT3 were tested. DAOY cells were treated with DMSO, 50 ng/ml of IFN-γ, LY-5 (1-5 μM) prepared as a 20 mM stock solution in sterile DMSO, protein expressions of P-STAT3 (Tyr705) and STAT3 were tested. MCF-7 cells were treated with DMSO, 50 ng/ml of OSM, LY-5 (1-2.5 μM) or LLL12 (1-2.5 μM) prepared as a 20 mM stock solution in sterile DMSO, protein expressions of P-STAT3 (Tyr705), P-STAT1, P-STAT5, P-ERK (T202/Y204), P-AKT, STAT3 and STAT1 were tested.
The cells were harvested and lysed in cold radioimmunoprecipitation assay (RIPA) lysis buffer containing […] and phosphatase inhibitor cocktail, and were subjected to SDS-PAGE. Then they were transferred to PVDF membrane. Membranes were probed with primary antibodies (1:1,000) and horseradish peroxidase (HRP)-conjugated secondary antibody (1:10,000) (Cell Signaling Technology, Beverly, Mass.). Membranes were analyzed using Enhanced Chemiluminescence Plus reagents and scanned with the Storm Scanner (Amersham Pharmacia Biotech, Inc., Piscataway, N.J.).
MCF-7 breast cancer cells were seeded in 10 cm plates and allowed to adhere overnight. The following day, the cells were serum-starved. The cells were then left untreated or were treated with LY-5 (0.25-1 μM) and LY-3 (0.5-2.5 μM) prepared as a 20 mM stock solution in sterile DMSO or DMSO. After 5 hours, the untreated and LY-5 and LY-3 treated cells were stimulated by IL-6 (25 ng/mL). The cells were harvested after 30 minutes and analyzed by Western blot. DAOY medulloblastoma cancer cells were seeded in 10 cm plates and allowed to adhere overnight. The following day, the cells were serum-starved. The cells were then left untreated or were treated with LY-5 (1-5 μM) prepared as a 20 mM stock solution in sterile DMSO or DMSO. After 2 hours, the untreated and LY-5 treated cells were stimulated by IL-6 (25 ng/mL). The cells were harvested after 30 minutes and analyzed by Western blot.

[2] = system: IGF2, IGF-1 or LIF induced STAT3 phosphorylation; experiment: Western blot, IGF and LIF induced STAT3 phosphorylation; format: cell-based, human
STAT5 = experiment: Western blot, STAT5 after OSM stimulation; format: cell-based, human; details: MCF-7; 1 and 2.5 μM; OSM 50 ng/mL
Experimental: as §1
MCF-7 breast cancer cells were seeded in 10 cm plates and allowed to adhere overnight. The following day, the cells were serum-starved. The cells were then left untreated or were treated with LY-5 and LLL12 (1 μM and 2.5 μM) prepared as a 20 mM stock solution in sterile DMSO or DMSO. […] The cells were harvested after 30 minutes and analyzed by Western blot.

OS-1 tumor xenografts = experiment: OS-1 tumor xenografts; format: in vivo, mouse; details: 5 mg/kg via IP for 5 days
Experimental: In order to provide preliminary data regarding potential toxicities from dosing of LY5, C57BL/6 tumor-free mice were treated with daily intraperitoneal (IP) injections of LY5 at 5 or 10 mg/kg for 7 days. […] Additionally, LY5 at a dose of 5 mg/kg via IP for 5 days inhibited growth of OS-1 tumor xenografts (90% tumor volume compared to baseline), while tumor in vehicle treated mice continued to grow (143% tumor volume compared to baseline).

STAT3 SH2 domain, sequence (P40763 580-670 limits assumed): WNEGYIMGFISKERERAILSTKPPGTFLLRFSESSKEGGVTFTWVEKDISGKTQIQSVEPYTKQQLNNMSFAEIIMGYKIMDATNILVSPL

NS(=O)(=O)c1cccc2c1C(=O)C=C(Nc1cccnc1)C2=O [LY-5, 5,8-dioxo-6-(pyridin-3-ylamino)-5,8-dihydronaphthalene-1-sulfonamide]
binding to STAT3 SH2 protein (STAT3 SH2 domain; 37° C., FIG. 8): binds | Ki (STAT3 SH2 domain; 37° C., STAT3 300 nM, labeled peptide 10 nM): 2500 nM | experimental ΔG value (STAT3 SH2 domain; from FP Ki): -7.9 kcal/mol | IL-6 induced STAT3 phosphorylation ([1]; DAOY, up to 5 μM, 2 h): inhibits; also recorded: blocked the stimulation | IL-6 induced STAT3 phosphorylation ([1]; DLD1, 0-5 μM, 2 h, IL-6 50 ng/mL): inhibits | IL-6 induced STAT3 phosphorylation ([1]; MCF-7, LY-3 0.5-2.5 μM, LY-5 0.25-1 μM, 5 h, IL-6 25 ng/mL): inhibit; also recorded: blocked the stimulation | IL-6 induced STAT3 phosphorylation at Y705 ([1]; SJSA, 0-2.5 μM, 3 h): inhibits | IGF-1 induced STAT3 phosphorylation at Y705 ([2]; DAOY, 0-5 μM, 2 h): inhibits | LIF induced STAT3 phosphorylation at Y705 ([2]; DAOY, 0-5 μM, 2 h): inhibits | IGF2 induced STAT3 phosphorylation ([2]; SJSA, 0-2.5 μM, 4 h): inhibits | inhibition of STAT5 (STAT5): exhibit inhibition | tumor volume compared to baseline (OS-1 tumor xenografts): 90%
